System: K98450-129-R-PDC multicell spheroids, viability
Assay: Anticancer human tumor K98450-129-R-PDC patient-derived colon adenocarcinoma cell line growth inhibition [PI3K]
Details: for IC50: curve of first compound; for viability, T/C: stronger effect = lower value
Summary of the method: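 We assembled tumor spheroids that included a stromal compartment of HUVEC and MSCs, then exposed them to targeted agents alone and together with PI3K pathway inhibitors. Concentration series descended by half-log from clinically achievable Cmax levels. Viability served as the endpoint.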

[1] = second compound 0.00316 µM, first compound 0.0316 µM
[2] = second compound 0.00316 µM, first compound 0.1 µM
[3] = second compound 0.00316 µM, first compound 0.316 µM
[4] = second compound 0.00316 µM, first compound 1 µM
[5] = second compound 0.00316 µM, first compound 3.16 µM
[6] = second compound 0.00316 µM, first compound 10 µM
[7] = second compound 0.01 µM, first compound 0.0316 µM
[8] = second compound 0.01 µM, first compound 0.1 µM
[9] = second compound 0.01 µM, first compound 0.316 µM
[10] = second compound 0.01 µM, first compound 1 µM
[11] = second compound 0.01 µM, first compound 3.16 µM
[12] = second compound 0.01 µM, first compound 10 µM
[13] = second compound 0.0316 µM, first compound 0.0316 µM
[14] = second compound 0.0316 µM, first compound 0.1 µM
[15] = second compound 0.0316 µM, first compound 0.316 µM
[16] = second compound 0.0316 µM, first compound 1 µM
[17] = second compound 0.0316 µM, first compound 3.16 µM
[18] = second compound 0.0316 µM, first compound 10 µM
[19] = second compound 0.1 µM, first compound 0.0316 µM
[20] = second compound 0.1 µM, first compound 0.1 µM
[21] = second compound 0.1 µM, first compound 0.316 µM
[22] = second compound 0.1 µM, first compound 1 µM
[23] = second compound 0.1 µM, first compound 3.16 µM
[24] = second compound 0.1 µM, first compound 10 µM
[25] = second compound 0.316 µM, first compound 0.0316 µM
[26] = second compound 0.316 µM, first compound 0.1 µM
[27] = second compound 0.316 µM, first compound 0.316 µM
[28] = second compound 0.316 µM, first compound 1 µM
[29] = second compound 0.316 µM, first compound 3.16 µM
[30] = second compound 0.316 µM, first compound 10 µM
[31] = second compound 1 µM, first compound 0.0316 µM
[32] = second compound 1 µM, first compound 0.1 µM
[33] = second compound 1 µM, first compound 0.316 µM
[34] = second compound 1 µM, first compound 1 µM
[35] = second compound 1 µM, first compound 3.16 µM
[36] = second compound 1 µM, first compound 10 µM
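Further: spheroids exposed to agents for seven days before read-out.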

C[C@@H](NC(=O)c1ncnc(N)c1Cl)c1ncc(C(=O)Nc2cc(C(F)(F)F)c(Cl)cn2)s1 + CC(Nc1ccc2c(c1)OCCn1cc(N3C(=O)OCC3C(F)F)nc1-2)C(N)=O
IC50 (second compound 0.00316 µM): > 10 µM | IC50 (second compound 0.01 µM): > 10 µM | IC50 (second compound 0.0316 µM): > 10 µM | IC50 (second compound 0.1 µM): > 10 µM | IC50 (second compound 0.316 µM): > 10 µM | IC50 (second compound 1 µM): > 10 µM | viability, T/C [1]: 111% | viability, T/C [2]: 109% | viability, T/C [3]: 118% | viability, T/C [4]: 114% | viability, T/C [5]: 118% | viability, T/C [6]: 111% | viability, T/C [7]: 115% | viability, T/C [8]: 108% | viability, T/C [9]: 116% | viability, T/C [10]: 115% | viability, T/C [11]: 118% | viability, T/C [12]: 116% | viability, T/C [13]: 105% | viability, T/C [14]: 102% | viability, T/C [15]: 108% | viability, T/C [16]: 121% | viability, T/C [17]: 122% | viability, T/C [18]: 104% | viability, T/C [19]: 96.7% | viability, T/C [20]: 105% | viability, T/C [21]: 107% | viability, T/C [22]: 110% | viability, T/C [23]: 125% | viability, T/C [24]: 107% | viability, T/C [25]: 97% | viability, T/C [26]: 109% | viability, T/C [27]: 113% | viability, T/C [28]: 111% | viability, T/C [29]: 120% | viability, T/C [30]: 101% | viability, T/C [31]: 86% | viability, T/C [32]: 94.4% | viability, T/C [33]: 102% | viability, T/C [34]: 104% | viability, T/C [35]: 115% | viability, T/C [36]: 90.7%

CNC(=O)c1ccc(N2C(=S)N(c3ccc(C#N)c(C(F)(F)F)c3)C(=O)C2(C)C)cc1F + CC(Nc1ccc2c(c1)OCCn1cc(N3C(=O)OCC3C(F)F)nc1-2)C(N)=O
IC50 (second compound 0.00316 µM): > 10 µM | IC50 (second compound 0.01 µM): > 10 µM | IC50 (second compound 0.0316 µM): > 10 µM | IC50 (second compound 0.1 µM): > 10 µM | IC50 (second compound 0.316 µM): > 10 µM | IC50 (second compound 1 µM): > 10 µM | viability, T/C [1]: 108% | viability, T/C [2]: 102% | viability, T/C [3]: 107% | viability, T/C [4]: 107% | viability, T/C [5]: 110% | viability, T/C [6]: 120% | viability, T/C [7]: 115% | viability, T/C [8]: 100% | viability, T/C [9]: 107% | viability, T/C [10]: 101% | viability, T/C [11]: 108% | viability, T/C [12]: 117% | viability, T/C [13]: 106% | viability, T/C [14]: 101% | viability, T/C [15]: 94.5% | viability, T/C [16]: 103% | viability, T/C [17]: 112% | viability, T/C [18]: 112% | viability, T/C [19]: 94.1% | viability, T/C [20]: 93.9% | viability, T/C [21]: 103% | viability, T/C [22]: 98.2% | viability, T/C [23]: 105% | viability, T/C [24]: 110% | viability, T/C [25]: 94.7% | viability, T/C [26]: 96.8% | viability, T/C [27]: 99.6% | viability, T/C [28]: 96.8% | viability, T/C [29]: 102% | viability, T/C [30]: 102% | viability, T/C [31]: 83.9% | viability, T/C [32]: 100% | viability, T/C [33]: 94.9% | viability, T/C [34]: 92.1% | viability, T/C [35]: 98.6% | viability, T/C [36]: 106%
